Laboratory results taken from patent US20230285357A1, “COMPOSITIONS AND METHODS FOR […] CELLS” (The Regents of the University of California, priority 2020, published 2023).

Experiments:
GSK3α and GSK3β = settings: cited from earlier work
[1] = test system: vascular calcification in Mgp−/− mice; experiment: Early vascular calcification in Mgp−/− mice; type: in vivo, mouse; settings: Mgp−/− mice at 2 weeks of age, 5 ug/g daily for 2 weeks
Experimental: To examine whether SB216763 could be used for treatment of vascular calcification, the Mgp^−/− mouse was chosen, a well-known model of calcification. Mgp^−/− mice develop arterial calcification as early as postnatal day 14. At 4 weeks of age, the entire arterial vasculature is severely calcified. Two independent experiments were performed to test if SB216763 decreased calcification in Mgp^−/− mice. First, young Mgp^−/− mice at 2 weeks of age with SB216763 were treated (5 ug/g daily) for 2 weeks to determine if SB216763 prevented osteogenesis in the Mgp^−/− aortas (FIG. 5, Part A).
Mgp^+/− (B6.129S7-Mgptm1Kry/KbosJ), Col1α1^CreERT2 (B6.Cg-Tg(Col1α1-cre/ERT2)1Crm/J), GSK3β^flox/flox (B6.129(Cg)-Gsk3btm2Jrw/J) and Osx-Gfptg (B6.Cg-Tg(Sp7-tTA,tetO-EGFP/cre)1Amc/J) mice on C57BL/6J background were purchased from the Jackson Laboratory. Genotypes were confirmed by PCR, and experiments were performed with generation F4-F6. Littermates were used as wild type controls. All mice were fed a standard chow diet. The studies were reviewed and approved by the Institutional Review Board and conducted in accordance with the animal care guidelines set by the University of California, Los Angeles (UCLA). The investigation conformed to the National Research Council, Guide for the Care and Use of Laboratory Animals, Eighth Edition (Washington, D.C.: The National Academies Press, 2011).

[2] = test system: SMAD1 or β-catenin DNA-binding; experiment: ChIP-seq of SMAD1 and β-catenin DNA-binding in treated osteoblasts; type: cell-based, mouse
Experimental: A chromatin immunoprecipitation was performed with massively parallel DNA sequencing (ChIP-seq) to examine potential alterations of SMAD1 or β-catenin DNA-binding in SB216763-treated osteoblasts.
For ChIP-seq, specific antibodies were used to enrich the genomic DNA as described before. ChIP DNA were sequenced by the Pathology Research Services at UCLA. Reads from each sample were mapped to the mouse genome using Bowtie2. Homer tool was used to detect significant enrichment of peaks with 5% false discovery rate and >4-fold over input. Motif occurrences in peaks were identified by the Homer motif discovery function. Peak annotation was performed to associate peaks with nearby genes and calculate tag densities. GO analysis and pathway enrichment of the identified genes were also performed. Specific antibodies for SMAD1 (Cell Signaling Technology, 9743) and β-catenin (R&D System, MAB2006) were used. The data were deposited in Gene Expression Omnibus (GEO) database with access number (GSE147374).

GFP+CD31+ aortic cells = experiment: Bone formation assay in vivo with GFP+CD31+ aortic cells of treated mice; design: species or system mouse
Experimental: Then, mice were treated with or without SB216763 for 2 weeks. […] Then, the alteration of GFP and CD31 double positive cells (GFP+CD31+) were characterized after SB216763 treatment. […] Same numbers of cells of each group were used to perform a transplantation experiment to examine the capacity of bone formation by using bone formation assay in vivo.

[3] = test system: mouse osteoblast line MC3T3; experiment: Real-time PCR of osteogenic, endothelial and other lineage markers in treated mouse osteoblasts; type: cell-based
Description: A high throughput screen was generated by modifying the mouse osteoblast line MC3T3. Fetal liver kinase 1 (Flk1) promoter-driven enhanced green fluorescent protein (eGFP) was introduced into these osteoblasts. […] Several libraries of small molecules, including a FDA-approved drug library, a UCLA in-house collection, and a custom set of compounds were screened. These libraries contained more than 22,000 small molecules ranging from natural products to synthesized compounds. […] Using arrange of dose (1-10 μM), it is shown that the reduction of the osteogenic markers Cbfa1, osterix and osteocalcin and the induction of the endothelial markers CD34, VE-cadherin, CD31 and eNOS occurred in a dose-dependent manner (FIG. 1, Part E). Osteoblasts were then treated with 10 μM SB216763 and examined the time-course expression of these osteogenic and endothelial markers. […] To determine if a mesenchymal stage or emerging stemness is required for SB216763 to induce osteoblastic-endothelial transdifferentiation, mesenchymal and stem cell markers were examined and found no induction in the SB216763-treated cells (FIG. 9, Part E). It was further determined the specificity of endothelial differentiation by closely examining other vascular lineage markers including smooth muscle cells (SMCs), pericytes, and fibroblasts by using real-time PCR. In addition, no-vascular lineages, such as cardiac, neuronal, hepatic, pulmonary, renal, hematopoietic and adipogenic lineages were examined. […] Because GSK3 is important in glucose metabolism, the expression of genes related to glucose metabolism was determined in the SB216763-treated osteoblasts, such as casein kinase 2, glucose transporter 4, and insulin receptor substrates 1 and 2.
Real-time PCR analysis was performed as previously described. Glyceraldehyde 3-phosphate dehydrogenase (GAPDH) was used as a control gene. Primers and probes for mouse and human Cbfa1, ostrix, osteocalcin, CD34, VE-cadherin, CD31, eNOS, SMAD1, and β-catenin, were obtained from Applied Biosystems as part of Tagman® Gene Expression Assays.

[4] = dose range 1-10 μM, dose-dependent manner

Cn1cc(C2=C(c3ccc(Cl)cc3Cl)C(=O)NC2=O)c2ccccc21 [SB216763]
inhibition of GSK3 isoforms GSK3α and GSK3β (GSK3α and GSK3β): specifically inhibits the activity of these GSK3 isoforms in an ATP competitive manner
CD31+ aortic cells co-expressing VE-cadherin and osterix, FACS [1]: decreased number of cells that co-expressed VE-cadherin and osterix
CD31+ aortic cells expressing only VE-cadherin, FACS [1]: increased number of cells that only expressed VE-cadherin
aortic mineralization, von Kossa staining [1]: dramatic decrease in aortic mineralization
immunoblotting of aortic tissues [1]: decreased Cbfa1 and osterix, increased von Willebrand factor (vWF) and VE-cadherin and altered SMAD1 and β-catenin
total aortic calcium [1]: decrease in calcium deposition
genes with decreased DNA-binding of SMAD1 in the regulatory regions ([2]; ChIP-seq): 8214 genes
genes with increased β-catenin DNA-binding in the regulatory regions ([2]; ChIP-seq): 1543 genes
genes with an increase in expression and β-catenin DNA-binding ([2]; overlap with 519 induced genes): 84 genes
genes with a decrease in both gene expression and SMAD1 DNA-binding ([2]; overlap with 827 suppressed genes): 649 genes
osteocytes in implants, histology (GFP+CD31+ aortic cells; implants with GFP+CD31+ aortic cells of treated group): lack of osteocytes
ectopic bone by Micro-CT (GFP+CD31+ aortic cells; implants with GFP+CD31+ aortic cells of treated group vs controls): smaller size of ectopic bone, less trabecular formation and less bone volume
time-course expression of osteogenic and endothelial markers ([3]; 10 μM): a reduction of osteogenic markers preceded the induction of the endothelial markers
expression of endothelial markers CD34, VE-cadherin, CD31 and eNOS [3, 4]: induction
expression of osteogenic markers Cbfa1, osterix and osteocalcin [3, 4]: reduction
other vascular and non-vascular lineage markers (SMC, pericyte, fibroblast, cardiac, neuronal, hepatic, pulmonary, renal, hematopoietic, adipogenic) ([3]; real-time PCR): No changes were found
mesenchymal and stem cell markers ([3]; treated cells): no induction
expression of genes related to glucose metabolism (casein kinase 2, glucose transporter 4, insulin receptor substrates 1 and 2) ([3]; treated osteoblasts): No changes were detected
